One data set concerns Ba/F3-BCR-ABL1-WT cells. Briefly: Ba/F3-BCR-ABL1-WT cellular proliferation assay. The conditions noted are these: Mus musculus, read-out: Ba/F3-BCR-ABL1-WT IC50. It counts as cell-based, murine.
A short description of data set [1]: Compound concentration in mouse brain and plasma. In kind it is in vivo. The conditions noted are these: 5 minutes after a single intravenous injection of 1 mg/kg in mice.
Method: Approximately two parts volume of MeOH/water (2/8 v/v) were added to the preweighted brain samples (˜250 mg) and subsequently homogenized using Covaris™ instrument. A 50 μL aliquot was subjected to protein precipitation and analysis as described below.
Fifty μL aliquots of blood or brain homogenate from animals treated with c-ABL inhibitors were first spiked with 5 μL of the internal standard (N-(4-methyl-3-((4-(6-methylpyridin-3-yl)pyrimidin-2-yl)amino)phenyl)-4-((4-methylpiperazin-1-yl)methyl)benzamide for positive ion mode 5-chloro-N-(4-(N-(cyclohexylcarbamoyl)sulfamoyl)-phenethyl)-2-methoxybenzamide for negative ion mode, respectively), subsequently deproteinated by adding MeCN (200 μL), centrifuged, the supernatant evaporated to dryness, and re-dissolved in 100 μL of a MeOH/water (1/1 v/v). Five μL were subjected to HPLC-MS/MS analysis. Chromatographic separation from interfering endogenous and exogenous contaminants was achieved on an Phenomenex™ Polar RP reversed-phase HPLC column (particle size: 2.5 μm; column dimensions: 2×50 mm) using a linear gradient of 100% water containing 1% formic acid (A), and MeOH supplemented with 1% formic acid (B), which was run over 6.0 min from 5% to 90% B, then kept at 100% B for 1.0 min, and a subsequent 1.5 min postrun with re-equilibration of the column. The column was kept at 50° C. The flow of 350 μL/min from the HPLC system (Flux Rheos Allegro LC pump and CTC Pal autosampler) was directly introduced into the ion source of an Finnigan™ Quantum Ultra MS-detector (triple stage quadrupole mass analyzer) and subjected to heated electrospray ionization (HESI).
c-ABL inhibitors were specifically detected using multiple reaction monitoring from their quasi-molecular parent ion ([M+H]^+ or [M−H]^−) to specific daughter ions as given in the table below. Quantification of blood and brain levels of c-ABL inhibitors compounds were based on a 6-level calibration curve made in triplicate.
The target in a further data set is ABL1 (64-515) (Homo sapiens (Human), UniProt P00519). Briefly: Radio ABL1 (64-515) assay (radiometric filter-binding). It counts as biochemical.

Like-named read-outs stand apart in the source and are kept apart here. Bounds are passed on as bounds.

ABL1 (64-515), sequence (P00519 64-515): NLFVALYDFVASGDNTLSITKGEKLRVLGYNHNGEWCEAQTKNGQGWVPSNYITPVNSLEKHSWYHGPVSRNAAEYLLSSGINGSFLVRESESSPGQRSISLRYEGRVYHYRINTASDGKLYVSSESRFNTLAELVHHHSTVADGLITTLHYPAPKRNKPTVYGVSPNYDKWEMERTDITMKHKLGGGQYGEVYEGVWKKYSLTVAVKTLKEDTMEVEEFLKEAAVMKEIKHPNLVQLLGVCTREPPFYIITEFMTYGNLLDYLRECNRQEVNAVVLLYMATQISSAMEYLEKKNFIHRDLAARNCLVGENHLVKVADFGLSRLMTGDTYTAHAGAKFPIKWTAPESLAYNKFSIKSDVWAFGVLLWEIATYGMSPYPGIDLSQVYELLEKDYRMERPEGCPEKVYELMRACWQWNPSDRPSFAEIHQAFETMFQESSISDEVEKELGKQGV
Method for ABL1 (64-515): For determination of ABL kinase activity, the radiometric filter-binding assay was used. […] Pre-incubation of enzyme with compounds (when stated) was performed by exposing the enzyme to compounds prior to addition of the substrate mixture (ATP and/or peptide substrate). […] Millipore, Volketswil, Switzerland) prepared according to the manufacturer's instructions. Filter-plates were washed 3× with 0.5% H3PO4, followed by addition of 30 μL scintillation cocktail (Microscint, Perkin Elmer) per well and then analysed in a TopCount NXT scintillation counter (Perkin Elmer). Results were expressed as IC50 values.
From the text for Ba/F3-BCR-ABL1-WT cells: The murine bone marrow-derived cell line Ba/F3 was used to generate the appropriate cell line models. Ba/F3 cells were obtained from the German Collection of Microorganisms and Cell Cultures (DSMZ, Braunschweig and DSMZ No. ACC 300). […] These cells are referred to as Ba/F3-WT.
To generate Ba/F3 cells that depend on BCR-ABL1 expression for growth and survival, Ba/F3 cells were engineered to express BCR-ABL1 using retroviral transduction with a MSCV based retroviral vector containing a p210 BCR-ABL1expression cassette. […] These cells are referred to as Ba/F3-BCR-ABL1-WT.
Ba/F3-WT cells were maintained in RPMI1640 media with L-glutamine, HEPES (Lonza), 10% FBS (Gibco) and 5 ng/ml IL-3 (Calbiochem).
For each cell line, the cell density was adjusted to 50 000 cells/mL and 50 μL (2500 cells) added per well of a 384-well assay plate.
Test compounds were resuspended in DMSO at a concentration of 10 mM. A serial three-fold dilution of each compound with DMSO was performed in 384-well plates using the Janus Liquid Dispenser (PerkinElmer). Compound was delivered to the assay plates containing 2500 cells in a 50 μL volume via Acoustic delivery from an ATS-100 (EDC).
Cells were incubated at 37° C. in a humidified environment with 5% carbon dioxide for 48 hours. Britelite plus solution (Perkin Elmer) was prepared according to the manufacturer's instructions and 25 μL added to each well of the assay plate. […] The degree of luminescence correlates with the number of cells in each well. The effect of each inhibitor concentration can therefore be calculated and IC50 values generated.

Regarding `O=C(Nc1ccc(OC(F)(F)F)cc1)c1cccc(-c2cncnc2)c1` [Example 1, 3-(Pyrimidin-5-yl)-N-(4-(trifluoromethoxy)phenyl)benzamide], the IC50 in the data set with Ba/F3-BCR-ABL1-WT cells (48 h) is 150 nM. In addition, the “Mean brain (drug concentration in brain)” value in data set [1] was 4946 pmol/g. Also, the concentration at 5 min in data set [1] (mouse, plasma, read-out: Mean blood (drug concentration in plasma)) is 1160 nM.

For `O=C(Nc1ccc(OC(F)(F)F)cc1)c1cccc(-c2cnc(OCCO)nc2)c1` [Example 2, 3-(2-(2-Hydroxyethoxy)pyrimidin-5-yl)-N-(4-(trifluoromethoxy)phenyl)benzamide], at ABL1 (64-515), the IC50 was 6.5 nM.

In turn, `N#Cc1cncc(-c2cccc(C(=O)Nc3ccc(OC(F)(F)F)cc3)c2)c1` [Example 3, 3-(5-Cyanopyridin-3-yl)-N-(4-(trifluoromethoxy)phenyl)benzamide] yielded an IC50 on ABL1 (64-515) of 3.9 nM.

The molecule `Nc1cnc(-c2cccc(C(=O)Nc3ccc(OC(F)(F)F)cc3)c2)cn1` [Example 4, 3-(5-Aminopyrazin-2-yl)-N-(4-(trifluoromethoxy)phenyl)benzamide] had an IC50 on ABL1 (64-515) of 7 nM.

`O=C(Nc1ccc(OC(F)(F)F)cc1)c1cccc(-c2cnccn2)c1` [Example 5, 3-(Pyrazin-2-yl)-N-(4-(trifluoromethoxy)phenyl)benzamide] displayed an IC50 on ABL1 (64-515) of 3.1 nM.

Regarding `COC(=O)c1cc(-c2cccc(C(=O)Nc3ccc(OC(F)(F)F)cc3)c2)cs1` [Example 6, Methyl 4-(3-((4-(trifluoromethoxy)phenyl)carbamoyl)phenyl)thiophene-2-carboxylate], the IC50 at ABL1 (64-515) turned out to be 3.3 nM; with Ba/F3-BCR-ABL1-WT cells (48 hours), 1060 nM.

`O=C(Nc1ccc(OC(F)(F)F)cc1)c1cccc(-c2ccc(CN3CCCC3)s2)c1` [Example 7, 3-(5-(Pyrrolidin-1-ylmethyl)thiophen-2-yl)-N-(4-(trifluoromethoxy)phenyl)benzamide]: the IC50 on ABL1 (64-515) is under 3 nM.

In the case of `O=C(Nc1ccc(OC(F)(F)F)cc1)c1cccc(-n2ccnc2)c1` [Example 8, 3-(1H-Imidazol-1-yl)-N-(4-(trifluoromethoxy)phenyl)benzamide], the IC50 on ABL1 (64-515) stood at 1.9 nM.

On to `O=C(Nc1ccc(OC(F)(F)F)c(F)c1)c1cccc(-c2cncnc2)c1` [Example 9, N-(3-Fluoro-4-(trifluoromethoxy)phenyl)-3-(pyrimidin-5-yl)benzamide], for which the figures for the IC50 on ABL1 (64-515) and in the data set on Ba/F3-BCR-ABL1-WT cells (48 hours) were 22 nM and 89 nM, respectively.

Regarding `O=C(Nc1ccc(CC(F)(F)F)cc1)c1cccc(-c2cncnc2)c1` [Example 12, 3-(Pyrimidin-5-yl)-N-(4-(2,2,2-trifluoroethyl)phenyl)benzamide], the IC50 in the data set on Ba/F3-BCR-ABL1-WT cells (48 hours) came to 148 nM.

The molecule `O=C(Nc1ccc(OC(F)(F)F)cc1)c1ccc(F)c(-c2cncnc2)c1` [Example 18, 4-fluoro-3-(pyrimidin-5-yl)-N-(4-(trifluoromethoxy)phenyl)benzamide] gave an IC50 on ABL1 (64-515) of 3.2 nM.

Turning to `COc1ncc(-c2cc(C(=O)Nc3ccc(OC(F)(F)F)cc3)ccc2F)cn1` [Example 19, 4-fluoro-3-(2-methoxypyrimidin-5-yl)-N-(4-(trifluoromethoxy)phenyl)benzamide], the IC50 on ABL1 (64-515) worked out at 12 nM.

`O=C(Nc1ccc(OC(F)(F)F)cc1)c1ccc(F)c(-c2cccnc2)c1` [Example 20, 4-fluoro-3-(pyridin-3-yl)-N-(4-(trifluoromethoxy)phenyl)benzamide] displayed an IC50 on ABL1 (64-515) of 13 nM.

Consider `Cn1cc(-c2cc(C(=O)Nc3ccc(OC(F)(F)F)cc3)ccc2F)cn1` [Example 22, 4-fluoro-3-(1-methyl-1H-pyrazol-4-yl)-N-(4-(trifluoromethoxy)phenyl)benzamide], for which the IC50 on ABL1 (64-515) was 35 nM.

For the molecule `O=C(Nc1ccc(OC(F)(F)F)cc1)c1ccc(F)c(-c2cc[nH]n2)c1` [Example 23, 4-fluoro-3-(1H-pyrazol-3-yl)-N-(4-(trifluoromethoxy)phenyl)benzamide], the IC50 on ABL1 (64-515) amounted to 31 nM; in the data set on Ba/F3-BCR-ABL1-WT cells (48 hours) it was 693 nM.

Consider `O=C(Nc1ccc(OC(F)(F)F)cc1)c1ccc(Cl)c(-c2cncnc2)c1` [Example 24, 4-chloro-3-(pyrimidin-5-yl)-N-(4-(trifluoromethoxy)phenyl)benzamide], for which, at ABL1 (64-515), the IC50 was under 3 nM.

Turning to `COc1ncc(-c2cc(C(=O)Nc3ccc(OC(F)(F)F)cc3)ccc2Cl)cn1` [Example 25, 4-chloro-3-(2-methoxypyrimidin-5-yl)-N-(4-(trifluoromethoxy)phenyl)benzamide], the IC50 at ABL1 (64-515) was determined as 8.1 nM.

Molecule `O=C(Nc1ccc(OC(F)(F)F)cc1)c1ccc(Cl)c(-c2cccnc2)c1` [Example 26, 4-chloro-3-(pyridin-3-yl)-N-(4-(trifluoromethoxy)phenyl)benzamide] registered an IC50 on ABL1 (64-515) of 13 nM.

As to `O=C(Nc1ccc(OC(F)(F)F)cc1)c1ccc(Cl)c(-c2ccncc2)c1` [Example 27, 4-chloro-3-(pyridin-4-yl)-N-(4-(trifluoromethoxy)phenyl)benzamide], at ABL1 (64-515), the IC50 was found to be 31 nM.

`COc1ccc(C(=O)Nc2ccc(OC(F)(F)F)cc2)cc1-c1cccnc1` [Example 31, 4-methoxy-3-(pyridin-3-yl)-N-(4-(trifluoromethoxy)phenyl)benzamide] showed an IC50 at ABL1 (64-515) of 3.2 nM.

Take `COc1ccc(C(=O)Nc2ccc(OC(F)(F)F)cc2)cc1-c1ccc(F)nc1` [Example 32, 3-(6-fluoropyridin-3-yl)-4-methoxy-N-(4-(trifluoromethoxy)phenyl)benzamide]: the IC50 at ABL1 (64-515) was determined as 3.4 nM.

`COc1ccc(C(=O)Nc2ccc(OC(F)(F)F)cc2)cc1-c1ccncc1` [Example 33, 4-methoxy-3-(pyridin-4-yl)-N-(4-(trifluoromethoxy)phenyl)benzamide] had an IC50 on ABL1 (64-515) of 8.7 nM.

Regarding `COc1ccc(C(=O)Nc2ccc(OC(F)(F)F)cc2)cc1-c1cc[nH]n1` [Example 34, 4-methoxy-3-(1H-pyrazol-3-yl)-N-(4-(trifluoromethoxy)phenyl)benzamide], the IC50 on ABL1 (64-515) turned out to be 13 nM; in the data set on Ba/F3-BCR-ABL1-WT cells (48 hours), 77 nM.

Molecule `COc1ccc(C(=O)Nc2ccc(OC(F)(F)F)cc2)cc1-c1ccc2c(c1)OCO2` [Example 35, 3-(Benzo[d][1,3]dioxol-5-yl)-4-methoxy-N-(4-(trifluoromethoxy)phenyl)benzamide] gave an IC50 on ABL1 (64-515) of 9.9 nM.

As to `COc1ccc(C(=O)Nc2ccc(OC(F)(F)F)cc2)cc1-c1ccc(C(C)=O)s1` [Example 36, 3-(5-Acetylthiophen-2-yl)-4-methoxy-N-(4-(trifluoromethoxy)phenyl)benzamide], on ABL1 (64-515), the IC50 is 3.4 nM.

`O=C(Nc1ccc(OC(F)(F)F)cc1)c1ccc(OCCO)c(-c2cncnc2)c1` [Example 38, 4-(2-Hydroxyethoxy)-3-(pyrimidin-5-yl)-N-(4-(trifluoromethoxy)phenyl)benzamide]: the IC50 on ABL1 (64-515) is under 3 nM.

Turning to `CC(C)CN1CCN(CCOc2ccc(C(=O)Nc3ccc(OC(F)(F)F)cc3)cc2-c2cncnc2)CC1` [Example 39, 4-(2-(4-Isobutylpiperazin-1-yl)ethoxy)-3-(pyrimidin-5-yl)-N-(4-(trifluoromethoxy)phenyl)benzamide], the IC50 at ABL1 (64-515) was under 3 nM.

In turn, `O=C(Nc1ccc(OC(F)(F)F)cc1)c1ccc(O)c(-c2cncnc2)c1` [Example 41, 4-Hydroxy-3-(pyrimidin-5-yl)-N-(4-(trifluoromethoxy)phenyl)benzamide] showed an IC50 at ABL1 (64-515) of 13 nM.

`O=C(Nc1ccc(OC(F)(F)F)cc1)c1cncc(-c2cncnc2)c1` [Example 42, 5-(Pyrimidin-5-yl)-N-(4-(trifluoromethoxy)phenyl)nicotinamide]: the IC50 in the data set on Ba/F3-BCR-ABL1-WT cells (48 h) worked out at 29 nM.

Turning to `COc1ncc(C(=O)Nc2ccc(OC(F)(F)F)cc2)cc1-c1cncnc1` [Example 49, 6-Methoxy-5-(pyrimidin-5-yl)-N-(4-(trifluoromethoxy)phenyl)nicotinamide], the IC50 is under 3 nM on ABL1 (64-515) and 47 nM with Ba/F3-BCR-ABL1-WT cells (48 hours).

As for `O=C(Nc1ccc(OC(F)(F)F)cc1)c1cnc(OCCNCCO)c(-c2cncnc2)c1` [Example 50, 6-(2-((2-Hydroxyethyl)amino)ethoxy)-5-(pyrimidin-5-yl)-N-(4-(trifluoromethoxy)phenyl)nicotinamide], the IC50 on ABL1 (64-515) was 4.2 nM.

As to `O=C(Nc1ccc(OC(F)(F)F)cc1)c1cccc(-c2cncnc2)c1F` [Example 60, 2-Fluoro-3-(pyrimidin-5-yl)-N-(4-(trifluoromethoxy)phenyl)benzamide], the IC50 on ABL1 (64-515) was 36 nM.

In turn, `COc1ncccc1-c1cncc(C(=O)Nc2ccc(OC(F)(F)F)cc2)c1` [Example 62, 2′-Methoxy-N-(4-(trifluoromethoxy)phenyl)-[3,3′-bipyridine]-5-carboxamide] yielded an IC50 on ABL1 (64-515) of 69 nM.

On to `O=C(Nc1ccc(OC(F)(F)F)cc1)c1cncc(-c2cccnc2O)c1` [Example 63, 2′-Hydroxy-N-(4-(trifluoromethoxy)phenyl)-[3,3′-bipyridine]-5-carboxamide], for which the IC50 on ABL1 (64-515) is 77 nM.

Turning to `O=C(Nc1ccc(OC(F)(F)F)cc1)c1cnc(Cl)c(-c2ncc[nH]2)c1` [Example 65, 6-Chloro-5-(1H-imidazol-2-yl)-N-(4-(trifluoromethoxy)phenyl)nicotinamide], the IC50 on ABL1 (64-515) turned out to be 5 nM; with Ba/F3-BCR-ABL1-WT cells (48 hours), 184 nM.

On ABL1 (64-515), `COc1ncc(-c2cc(C(=O)Nc3ccc(OC(F)(F)F)cc3)ccn2)cn1` [Example 69, 2-(2-Methoxypyrimidin-5-yl)-N-(4-(trifluoromethoxy)phenyl)isonicotinamide] showed an IC50 of under 3 nM.

`O=C(Nc1ccc(OC(F)(F)F)cc1)c1ccnc(-c2cncnc2)c1` [Example 70, 2-(Pyrimidin-5-yl)-N-(4-(trifluoromethoxy)phenyl)isonicotinamide] yielded an IC50 on ABL1 (64-515) of 13 nM.

As for `O=C(Nc1ccc(OC(F)(F)F)cc1)c1cncc(-c2cncnc2)n1` [Example 71, 6-(pyrimidin-5-yl)-N-(4-(trifluoromethoxy)phenyl)pyrazine-2-carboxamide], on ABL1 (64-515), the IC50 is 660 nM.

Molecule `O=C(Nc1ccc(OC(F)(F)F)cc1)c1cc(-c2cncnc2)ccn1` [Example 72, 4-(pyrimidin-5-yl)-N-(4-(trifluoromethoxy)phenyl)picolinamide] displayed an IC50 on ABL1 (64-515) of 650 nM.

These data come from patent US9315489B2, “Compounds and compositions for inhibiting the activity of ABL1, ABL2 and BCR-ABL1” (Novartis AG, priority 2012, dated 2016).
